Here are results for 11 compounds from publication PMC5924617 (European journal of medicinal chemistry, 2018).

For data set [1], the system named is ISG56. As to the kind of experiment: poly. The class given is cell-based, human. Conditions: for Inhibitory rate (%) of ISG56 expression: 10 μM compound, poly(I:C)-induced, hSAECs; for inhibition at 10 µM: Homo sapiens, read-out: Inhibitory rate (%) of ISG56 expression.
The subject of data set [2] is Groβ. As to the kind of experiment: poly. Conditions: for Inhibitory rate (%) of Groβ expression: 10 μM compound, poly(I:C)-induced, hSAECs; for inhibition at 10 µM: Homo sapiens, read-out: Inhibitory rate (%) of Groβ expression. The class given is cell-based, human.
Data set [3] has as its system innate immune genes including ISG54, ISG56, IL-8 and Groβ. The experiment in a line: poly. Type of data set: cell-based, human. To be noted: for IC50: Homo sapiens, read-out: IC50 against all innate immune genes (range); for Inhibitory rates on immune genes' expression (all genes, text): 10 μM compound, ISG54, ISG56, IL-8, Groβ in hSAECs.
Data set [4] concerns ISG54. As to the kind of experiment: poly. Type of data set: cell-based, human.
Data set [5] has as its system IL-8. The experiment in a line: poly. Type of data set: cell-based, human. To be noted: for inhibition at 10 µM: Homo sapiens, read-out: Inhibitory rate (%) of IL-8 expression.
A short description of data set [6]: In vivo pharmacokinetic profile in rats. Conditions: PO 20 mg/kg.
In data set [7] the test system is various receptors and enzymes including kinases such as IKK. As to the kind of experiment: Eurofins Cerep panel assays, off-target effects. To be noted: tested concentration 10 μM; Table S1.
The nature of data set [8]: Daily administration over one month in mice, toxicity. To be noted: compound-treated mice.
The mark [9] stands for this setting: 10 μM compound, poly(I:C)-induced, hSAECs.

“5-Chloro-2-methoxy-N-(2-oxo-1,2,3,4-tetrahydroquinolin-6-yl)benzenesulfonamide [Compound 26]”: in data set [1], the “Inhibitory rate (%) of ISG56 expression” value is reported as 56%. Also, in data set [2], the “Inhibitory rate (%) of Groβ expression” value was determined as 56%.
A word on the IC50: it is the midpoint of a concentration-inhibition curve. `Cc1sc2c(c1C)C(c1ccc(Cl)cc1)=N[C@@H](CC(=O)OC(C)(C)C)c1nnc(C)n1-2` [(+)-JQ1, reference compound]: the IC50 in data set [3] is 1380 to 3850 nM.
Turning to `CCCc1cc(C(=O)Nc2ccc(S(=O)(=O)N3CCC[C@H]3C(=O)OC)cc2)no1` [Compound 11, Methyl ((4-(5-propylisoxazole-3-carboxamido)phenyl)sulfonyl)-L-prolinate], the inhibition at 10 µM was -62% in data set [4] (Homo sapiens, read-out: Inhibitory rate (%) of ISG54 expression); -73% in data set [1]; -61% in data set [5]; -57% in data set [2].
`COC(=O)[C@@H]1CCCN1S(=O)(=O)c1ccc(N(C(=O)c2ccc(F)cc2)C(=O)c2ccc(F)cc2)cc1` [Compound 13, Methyl ((4-(4-fluoro-N-(4-fluorobenzoyl)benzamido)phenyl)sulfonyl)-L-prolinate]: in data set [3], the “Inhibitory rates on immune genes' expression (all genes, text)” value is “around 90%”.
Same read-out and setting: in the case of `COC(=O)[C@@H]1CCCN1S(=O)(=O)c1ccc(NC(=O)c2ccc(C(F)(F)F)cc2)cc1` [Compound 14, Methyl ((4-(4-(trifluoromethyl)benzamido)phenyl)sulfonyl)-L-prolinate] it was “completely lost its activity”.
Take `COC(=O)[C@@H]1CCCN1S(=O)(=O)c1ccc(NCc2ccc(O)cc2)cc1` [Compound 15, Methyl ((4-((4-hydroxybenzyl)amino)phenyl)sulfonyl)-L-prolinate]: the figures for the inhibition at 10 µM in data set [1] and in data set [2] were -17% and -12%, respectively.
Regarding `O=C1CCc2cc(NS(=O)(=O)c3ccc([N+](=O)[O-])cc3)ccc2N1` [Compound 27, 4-Nitro-N-(2-oxo-1,2,3,4-tetrahydroquinolin-6-yl)benzenesulfonamide], in data set [5], the inhibition at 10 µM is -32%.
In the case of `Cc1cc(/N=N/c2ccc3c(c2)CCC(=O)N3)c(N)cc1O` [Compound 28, (E)-6-((2-Amino-4-hydroxy-5-methylphenyl)diazenyl)-3,4-dihydroquinolin-2(1H)-one], the IC50 in data set [3] lay within 490 to 860 nM. The Oral bioavailability result in data set [6] is reported as “not favorable”.
Turning to `Cc1cc(/N=N/c2ccc(N3CCS(=O)(=O)CC3)cc2)c(N)cc1O` [Compound 33, (E)-4-(4-((2-Amino-4-hydroxy-5-methylphenyl)diazenyl)phenyl)thiomorpholine 1,1-dioxide], the “Inhibitory rates on immune genes' expression (all genes, text)” value in data set [3] was “inactive”.
As for `Cc1cc(/N=N/c2ccc(S(=O)(=O)NC3CCCC3)cc2)c(N)cc1O` [Compound 35, (E)-4-((2-Amino-4-hydroxy-5-methylphenyl)diazenyl)-N-cyclopentylbenzenesulfonamide], in data set [3], the concentration for half-maximal inhibition (IC50) lay in the range of 490 to 860 nM. The Oral bioavailability entry in data set [6] is listed as “not favorable”. Besides, the Off-target effects result in data set [7] is “No significant off-target effects”. The “Effects on hepatic, renal or pulmonary tissues, histological examination” value in data set [8] is “No discernable effects”.
On to “Methyl ((4-(5-(furan-3-yl)isoxazole-3-carboxamido)phenyl)sulfonyl)-L-prolinate [Compound 12]”, for which the “Inhibitory rate (%) of ISG54 expression” value in data set [4] (setting [9]) was −114%. Further, the “Inhibitory rate (%) of ISG56 expression” value in data set [1] is −93%. Further, the “Inhibitory rate (%) of IL-8 expression” value in data set [5] (setting [9]) was −86%. The “Inhibitory rate (%) of Groβ expression” value in data set [2] is listed as −98%.
